In patent publication US7163923B2, “Peptide deformylase activated prodrugs” (Celmed Oncology (USA), Inc., priority 2001, dated 2007):
Values after ≈ are worked out from the molar mass of the structure shown. Read-outs that look alike come from different tables or passages of the source.

Columns and labels:
Assay type in all cases: cell-based
E. aerogenes = assay: MIC susceptibility testing (modified NCCLS, 384-well); conditions: Klebsiella aerogenes
Procedure: (§1) The NCCLS (National Committee for Clinical Laboratory Standards), method to determine MIC's of antimicrobial compounds is modified for high-throughput screening. All stocks of tested compounds are prepared in either water or in DMSO depending on solubility. At the highest concentration, DMSO content should not exceed 0.5%. Briefly, twenty 2-fold serial dilutions of test compounds from the highest concentration are made in a 384-well microtiter plate. […] Bacterial growth is determined by the increase of optical density at 600 nm using a microplate reader (Tecan SpectraFluor Plus).

E. cloacae = assay: as above; conditions: Enterobacter cloacae
Procedure: as §1

E. faecalis = assay: as above; conditions: Enterococcus faecalis
Procedure: as §1

H. influenzae = assay: as above; conditions: Haemophilus influenzae
Procedure: as §1

K. pneumoniae = assay: as above; conditions: Klebsiella pneumoniae
Procedure: as §1

M. catarrhalis = assay: as above
Procedure: as §1

P. aeruginosa = assay: as above; conditions: Pseudomonas aeruginosa
Procedure: as §1

S. epidermidis = assay: as above; conditions: Staphylococcus epidermidis
Procedure: as §1

E. coli = assay: as above
Procedure: The NCCLS (National Committee for Clinical Laboratory Standards), method to determine MIC's of antimicrobial compounds is modified for high-throughput screening. All stocks of tested compounds are prepared in either water or in DMSO depending on solubility. At the highest concentration, DMSO content should not exceed 0.5%. Briefly, twenty 2-fold serial dilutions of test compounds from the highest concentration are made in a 384-well microtiter plate. Each well is inoculated with testing bacteria in broth to a final concentration of approximately 1–1.5×10^6 cells/ml. Bacterial growth is determined by the increase of optical density at 600 nm using a microplate reader (Tecan SpectraFluor Plus). The MIC is defined as the lowest concentration at which bacterial growth (equivalent to visible growth) was inhibited after 16 to 18 hours of incubation at the appropriate temperature required for the bacteria growth.
E. coli/TEM—E. coli expressing TEM-1 beta-lactamase; MRSA—Methicillin Resistant S. Aureus; MSSA—Methicillin Sensitive S. Aureus

[1] = Toxicity to mammalian cells; conditions: after 16 hours of exposure
Procedure: Mammalian cells were treated with NB2046 as described above.

## CSCCC(NC=O)C(=O)NC(CC(C)C)C(=O)Oc1cc(Cl)ccc1Oc1ccc(Cl)cc1Cl (stereo not drawn) [NB2046, 2-(2-formylamino-4-methylsulfanyl-butyrylamino)-4-methyl-pentanoic acid 5-chloro-2-(2,4-dichloro-phenoxy)-phenyl ester]
E. aerogenes; ATCC13048, E. aerogenes ATCC 13048, Exp. #1, Table 3
  MIC: 1 µg/mL (≈ 1.78 µM)
E. aerogenes; ATCC13048, E. aerogenes ATCC 13048, Exp. #2, Table 3
  MIC: 1 µg/mL (≈ 1.78 µM)
E. aerogenes; ATCC29009, E. aerogenes ATCC 29009, Exp. #1, Table 3
  MIC: 0.25 µg/mL (≈ 0.445 µM)
E. aerogenes; ATCC29009, E. aerogenes ATCC 29009, Exp. #2, Table 3
  MIC: ≤ 0.125 µg/mL
E. aerogenes; ATCC29751, E. aerogenes ATCC 29751, Exp. #1, Table 3
  MIC: 2 µg/mL (≈ 3.56 µM)
E. aerogenes; ATCC29751, E. aerogenes ATCC 29751, Exp. #2, Table 3
  MIC: 1 µg/mL (≈ 1.78 µM)
E. aerogenes; ATCC35028, E. aerogenes ATCC 35028, Exp. #1, Table 3
  MIC: 4 µg/mL (≈ 7.12 µM)
E. aerogenes; ATCC35028, E. aerogenes ATCC 35028, Exp. #1, Table 4
  MIC: 32 µg/mL (≈ 56.9 µM)
E. aerogenes; ATCC35028, E. aerogenes ATCC 35028, Exp. #2, Table 3
  MIC: 2 µg/mL (≈ 3.56 µM)
E. aerogenes; ATCC35028, E. aerogenes ATCC 35028, Exp. #2, Table 4
  MIC: 16 µg/mL (≈ 28.5 µM)
E. cloacae; ATCC23355, E. cloacae ATCC 23355, Exp. #1, Table 3
  MIC: 0.5 µg/mL (≈ 0.89 µM)
E. cloacae; ATCC23355, E. cloacae ATCC 23355, Exp. #1, Table 4
  MIC: 16 µg/mL (≈ 28.5 µM)
E. cloacae; ATCC23355, E. cloacae ATCC 23355, Exp. #2, Table 3
  MIC: 0.5 µg/mL (≈ 0.89 µM)
E. cloacae; ATCC23355, E. cloacae ATCC 23355, Exp. #2, Table 4
  MIC: 1 µg/mL (≈ 1.78 µM)
E. faecalis; ATCC49757, E. faecalis ATCC 49757, Exp. #1, Table 4
  MIC: 64 µg/mL (≈ 114 µM)
E. faecalis; ATCC49757, E. faecalis ATCC 49757, Exp. #2, Table 4
  MIC: 32 µg/mL (≈ 56.9 µM)
E. faecalis; ATCC700802, E. faecalis ATCC 700802, Exp. #1, Table 4
  MIC: 32 µg/mL (≈ 56.9 µM)
E. faecalis; ATCC700802, E. faecalis ATCC 700802, Exp. #2, Table 4
  MIC: 32 µg/mL (≈ 56.9 µM)
H. influenzae; ATCC33533, H. influenzae ATCC 33533, Exp. #1, Table 4
  MIC: 64 µg/mL (≈ 114 µM)
H. influenzae; ATCC33533, H. influenzae ATCC 33533, Exp. #2, Table 4
  MIC: ≥ 64 µg/mL
K. pneumoniae; ATCC51503, K. pneumoniae ATCC 51503, Exp. #1, Table 3
  MIC: 8 µg/mL (≈ 14.2 µM)
K. pneumoniae; ATCC51503, K. pneumoniae ATCC 51503, Exp. #1, Table 4
  MIC: 4 µg/mL (≈ 7.12 µM)
K. pneumoniae; ATCC51503, K. pneumoniae ATCC 51503, Exp. #2, Table 3
  MIC: 8 µg/mL (≈ 14.2 µM)
K. pneumoniae; ATCC51503, K. pneumoniae ATCC 51503, Exp. #2, Table 4
  MIC: 8 µg/mL (≈ 14.2 µM)
K. pneumoniae; ATCC51504, K. pneumoniae ATCC 51504, Exp. #1, Table 3
  MIC: 1 µg/mL (≈ 1.78 µM)
K. pneumoniae; ATCC51504, K. pneumoniae ATCC 51504, Exp. #2, Table 3
  MIC: 2 µg/mL (≈ 3.56 µM)
K. pneumoniae; ATCC700721, K. pneumoniae ATCC 700721, Exp. #1, Table 3
  MIC: 2 µg/mL (≈ 3.56 µM)
K. pneumoniae; ATCC700721, K. pneumoniae ATCC 700721, Exp. #1, Table 4
  MIC: 4 µg/mL (≈ 7.12 µM)
K. pneumoniae; ATCC700721, K. pneumoniae ATCC 700721, Exp. #2, Table 3
  MIC: 2 µg/mL (≈ 3.56 µM)
K. pneumoniae; ATCC700721, K. pneumoniae ATCC 700721, Exp. #2, Table 4
  MIC: 8 µg/mL (≈ 14.2 µM)
M. catarrhalis; M. catarrhalis ATCC 43627, Exp. #2, Table 3
  MIC: ≦0.125 μg/ml
M. catarrhalis; M. catarrhalis ATCC 43628, Exp. #2, Table 3
  MIC: ≦0.125 μg/ml
M. catarrhalis; M. catarrhalis ATCC 49265, Exp. #2, Table 3
  MIC: ≦0.125 μg/ml
M. catarrhalis; M. catarrhalis ATCC 51584, Exp. #2, Table 3
  MIC: ≦0.125 μg/ml
M. catarrhalis; Moraxella catarrhalis, ATCC43627, M. catarrhalis ATCC 43627, Exp. #1, Table 3, read-out: MIC
  MIC: ≤ 0.125 µg/mL
M. catarrhalis; Moraxella catarrhalis, ATCC43628, M. catarrhalis ATCC 43628, Exp. #1, Table 3, read-out: MIC
  MIC: ≤ 0.125 µg/mL
M. catarrhalis; Moraxella catarrhalis, ATCC49265, M. catarrhalis ATCC 49265, Exp. #1, Table 3, read-out: MIC
  MIC: ≤ 0.125 µg/mL
M. catarrhalis; Moraxella catarrhalis, ATCC51584, M. catarrhalis ATCC 51584, Exp. #1, Table 3, read-out: MIC
  MIC: ≤ 0.125 µg/mL
P. aeruginosa; ATCC21726, P. aeruginosa ATCC 21726, Exp. #1, Table 4
  MIC: > 64 µg/mL
P. aeruginosa; ATCC21726, P. aeruginosa ATCC 21726, Exp. #2, Table 4
  MIC: ≥ 64 µg/mL
P. aeruginosa; ATCC29872, P. aeruginosa ATCC 29872, Exp. #1, Table 4
  MIC: > 64 µg/mL
P. aeruginosa; ATCC29872, P. aeruginosa ATCC 29872, Exp. #2, Table 4
  MIC: ≥ 64 µg/mL
S. epidermidis; ATCC27626, S. epidermidis ATCC 27626, Exp. #1, Table 3
  MIC: ≤ 0.125 µg/mL
S. epidermidis; ATCC27626, S. epidermidis ATCC 27626, Exp. #2, Table 3
  MIC: ≤ 0.125 µg/mL
S. epidermidis; ATCC700565, S. epidermidis ATCC 700565, Exp. #1, Table 3
  MIC: 2 µg/mL (≈ 3.56 µM)
S. epidermidis; ATCC700565, S. epidermidis ATCC 700565, Exp. #2, Table 3
  MIC: 2 µg/mL (≈ 3.56 µM)
S. epidermidis; ATCC700566, S. epidermidis ATCC 700566, Exp. #1, Table 3
  MIC: ≤ 0.125 µg/mL
S. epidermidis; ATCC700566, S. epidermidis ATCC 700566, Exp. #2, Table 3
  MIC: ≤ 0.125 µg/mL
S. epidermidis; ATCC700578, S. epidermidis ATCC 700578, Exp. #1, Table 3
  MIC: 0.5 µg/mL (≈ 0.89 µM)
S. epidermidis; ATCC700578, S. epidermidis ATCC 700578, Exp. #2, Table 3
  MIC: 0.25 µg/mL (≈ 0.445 µM)
S. epidermidis; ATCC700583, S. epidermidis ATCC 700583, Exp. #1, Table 3
  MIC: ≤ 0.125 µg/mL
S. epidermidis; ATCC700583, S. epidermidis ATCC 700583, Exp. #2, Table 3
  MIC: ≤ 0.125 µg/mL
E. coli; E. coli, Exp. #2, Table 4
  MIC: 16 µg/mL (≈ 28.5 µM)
E. coli; E. coli/Tem-1 (expressing TEM-1 beta-lactamase), Exp. #1, Table 4
  MIC: 16 µg/mL (≈ 28.5 µM)
E. coli; E. coli/Tem-1 (expressing TEM-1 beta-lactamase), Exp. #2, Table 4
  MIC: 16 µg/mL (≈ 28.5 µM)
E. coli; Escherichia coli, E. coli, Exp. #1, Table 4, read-out: MIC
  MIC: 16 µg/mL (≈ 28.5 µM)
[1]
  IC50 at 16 h: ~30 µM
